# According to patent US6833372B2, “Non-peptide GnRH agents, Pharmaceutical compositions, and methods for their use” (Pfizer, Inc., priority 2002, dated 2004):
# How the values were obtained:
# [1] = In vitro metabolism: disappearance of parent compound in monkey liver microsomes; assay type: in vitro ADME; conditions: 5 uM compound, 30 minutes 37° C.
# Protocol: (§1) Human, rat, dog, and monkey liver microsomes were isolated by differential centrifugation. Specimens of human liver were obtained from the International Institute for the Advancement of Medicine (Scranton, Pa.). The disappearance of the parent compound was studied in a mixture containing 5 uM compound, 0.5 mg/ml microsomal protein, and 2 mM NADPH in 50 mM K phosphate buffer, pH 7.4. Samples were incubated for 30 minutes at 37° C. The reaction was terminated by the addition of acetonitrile and compounds analyzed by LC-MS as described above.
# [2] = In vitro metabolism: disappearance of parent compound in rat liver microsomes (male, female); assay type: in vitro ADME; conditions: 5 uM compound, 30 minutes 37° C.; for Fem. Rat (FR) % rem. 30′: female rat liver microsomes; for Male Rat (MR) % rem. 30′: male rat liver microsomes
# Protocol: as §1
# [3] = In vitro metabolism: disappearance of parent compound in dog liver microsomes; assay type: in vitro ADME; conditions: 5 uM compound, 30 minutes 37° C.
# Protocol: as §1
# H S A = H S A (Homo sapiens, UniProt P02768); assay: H S A column α; assay type: in vitro ADME
# Chain of H S A (P02768 25-609): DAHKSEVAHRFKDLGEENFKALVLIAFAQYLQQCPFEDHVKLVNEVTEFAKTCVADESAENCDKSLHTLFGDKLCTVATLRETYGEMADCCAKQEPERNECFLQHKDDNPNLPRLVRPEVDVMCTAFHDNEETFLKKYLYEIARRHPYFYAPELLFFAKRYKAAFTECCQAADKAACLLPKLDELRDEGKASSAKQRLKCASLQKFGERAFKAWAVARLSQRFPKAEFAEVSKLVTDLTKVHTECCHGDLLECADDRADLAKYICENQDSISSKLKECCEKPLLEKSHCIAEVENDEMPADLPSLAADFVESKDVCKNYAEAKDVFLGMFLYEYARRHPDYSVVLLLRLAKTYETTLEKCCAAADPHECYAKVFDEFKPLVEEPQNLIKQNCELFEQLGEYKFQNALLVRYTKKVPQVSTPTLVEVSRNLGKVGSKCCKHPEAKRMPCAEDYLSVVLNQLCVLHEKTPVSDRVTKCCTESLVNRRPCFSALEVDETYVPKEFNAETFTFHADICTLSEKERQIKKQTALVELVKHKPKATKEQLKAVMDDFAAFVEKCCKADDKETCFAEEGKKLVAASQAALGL
# [4] = In vitro metabolism: disappearance of parent compound in human liver microsomes; assay type: in vitro ADME; conditions: 5 uM compound, 0.5 mg/ml protein, 2 mM NADPH, 30 minutes 37° C.
# Protocol: as §1
# [5] = Solubility at pH2 and pH6; assay type: physicochemical; conditions: pH 6, aqueous buffer, pH6; read-out: Solubility μg/ml pH6
# Rat plasma % remain = assay type: in vitro ADME
# rat GnRH receptor = biological target: T1, rat GnRH receptor (Rattus norvegicus, UniProt P30969); assay: Radioligand binding: inhibition of 125I-GnRH-A binding to rat GnRH receptor (rat pituitary membranes); conditions: read-out: Ki (nM), Inhibition Binding of 125I-GnRH-A to GnRH Receptors
# T1 construct: or rat pituitaries (Pel Freez Biologicals, Rogers, Ark.) were homogenized; tissue Pel Freez Biologicals; host or cells: rat pituitaries (membrane preparation)
# T1 sequence (P30969 1-327): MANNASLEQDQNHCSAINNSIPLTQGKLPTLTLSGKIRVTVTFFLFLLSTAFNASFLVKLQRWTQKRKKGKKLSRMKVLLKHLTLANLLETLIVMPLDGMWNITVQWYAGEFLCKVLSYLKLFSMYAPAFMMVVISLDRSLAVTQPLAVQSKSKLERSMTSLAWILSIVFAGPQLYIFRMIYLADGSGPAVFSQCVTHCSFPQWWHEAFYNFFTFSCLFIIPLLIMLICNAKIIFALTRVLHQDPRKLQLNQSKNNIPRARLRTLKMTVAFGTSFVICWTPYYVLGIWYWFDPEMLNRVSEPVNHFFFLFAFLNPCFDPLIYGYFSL
# Method in brief: (§2)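 Membranes from rat pituitaries, or HEK 293 cells stably expressing mouse or human receptor, incubated 1 hour at room temperature with ~0.04-0.06 nM radioligand (HEPES pH 7.4, EDTA, MgCl2, BSA) and competitor at 0.1-10,000 nM. Bound ligand collected by GF/C filtration and counted; Ki derived from IC50 by Cheng-Prusoff.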
# [6] = Pharmacokinetics in rats (jugular vein cannula, plasma LC-MS); assay type: in vivo, Rat; conditions: female rat, 10 mg/kg as 5 mg/ml solution in 10% DMSO, 10% cremophor, 80% saline (footnote 5); for Cmax / half-life / Tmax: female, rat, plasma, po, 10 mg/kg; for Cmax: read-out: FR Cmax; for half-life: read-out: FR T1/2 hr (converted); for Tmax: read-out: FR Tmax hr
# Protocol: Rats (male or female, 200-225 g) were prepared with indwelling jugular vein cannula as described by Harms et al., Applied Physiol. 36:391-398 (1974), and allowed to recover overnight with free access to the standard vivarium chow and water. […] […] The blood samples were withdrawn at specific times, plasma was immediately separated and compound extracted with ethyl acetate. The samples were analyzed by LC-MS using 30-90% gradient of ACN in 50 mM ammonium acetate.
# The pharmacokinetic parameters were calculated using WinNonlin software (Scientific Consulting Inc.). The bioavailability was calculated as AUCp.o./AUCi.v., where AUCp.o. and AUC i.v. are areas under the plasma concentration-time curve after oral and i.v. administration, respectively.
# human GnRH receptors = biological target: T2, human GnRH receptors (Homo sapiens, UniProt P30968); assay: Radioligand binding: inhibition of 125I-GnRH-A binding to human GnRH receptor membranes; conditions: HEK 293 cell membranes
# T2 construct: expressed in transfected cells; host or cells: HEK 293 cells, stably transfected; membranes
# T2 sequence (P30968 1-328): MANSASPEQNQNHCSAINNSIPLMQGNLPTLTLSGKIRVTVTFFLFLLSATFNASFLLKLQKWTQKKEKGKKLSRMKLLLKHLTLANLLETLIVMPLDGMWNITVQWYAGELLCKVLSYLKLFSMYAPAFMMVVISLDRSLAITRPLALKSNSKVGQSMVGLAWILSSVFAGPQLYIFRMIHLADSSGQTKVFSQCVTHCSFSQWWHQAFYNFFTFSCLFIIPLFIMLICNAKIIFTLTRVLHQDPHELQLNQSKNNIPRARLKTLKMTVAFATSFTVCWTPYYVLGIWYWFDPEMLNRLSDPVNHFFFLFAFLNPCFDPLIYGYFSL
# Method in brief: as §2
Structure (SMILES),Monkey % rem. [1],Fem. Rat (FR) % rem. 30′ [2],Male Rat (MR) % rem. 30′ [2],Dog % rem. 30′ [3],H S A column α (H S A),Human % rem. 30′ [4],solubility [5],Rat plasma % remain (Rat plasma % remain),Ki (rat GnRH receptor),FR Fp.o. [6],Cmax [6],half-life [6],Tmax [6],Ki (human GnRH receptors)
"COc1nc(Nc2ccccc2)nc(OC)c1NC(=O)c1ccc(Cc2cc3c(cc2C)C(C)(C)OC3(C)C)o1 [Example D1, 5-(1,1,3,3,6-Pentamethyl-1,3-dihydro-isobenzofuran-5-ylmethyl)-furan-2-carboxylic Acid (4,6-dimethoxy-2-phenylamino-pyrimidin-5-yl)-amide]",22%,81%,20%,52%,8,82%,> 15 µg/mL,100%,2.1 nM,2%^5,100 nM,1.2 h,1 h,1.6 nM
"CCN(CC)CCNc1nc(OC)c(NC(=O)c2ccc(Cc3cc4c(cc3C)C(C)(C)OC4(C)C)o2)c(OC)n1 [Example D7, N-(2-{[2-(Diethylamino)ethyl]amino}-4,6-dimethoxypyrimidin-5-yl)-5-[(1,1,3,3,6-pentamethyl-1,3-dihydro-2-benzofuran-5-yl)methyl]-2-furamide]",16%,95%,91%,91%,2,91%,,100%,2.2 nM,30%^5,500 nM,4.1 h,2 h,6 nM
"COc1nc(N(C)C)nc(OC)c1NC(=O)c1ccc(Cc2cc3c(cc2C)C(C)(C)OC3(C)C)o1 [Example D8, N-[2-(Dimethylamino)-4,6-dimethoxypyrimidin-5-yl]-5-[(1,1,3,3,6-pentamethyl-1,3-dihydro-2-benzofuran-5-yl)methyl]-2-furamide]",4%,84%,58%,49%,3,73%,,100%,31 nM,,,,,6 nM
"COc1nc(NCCCN(C)C)nc(OC)c1NC(=O)c1ccc(Cc2cc3c(cc2C)C(C)(C)OC3(C)C)o1 [Example D9, N-(2-{[3-(Dimethylamino)propyl]amino}-4,6-dimethoxypyrimidin-5-yl)-5-[(1,1,3,3,6-pentamethyl-1,3-dihydro-2-benzofuran-5-yl)methyl]-2-furamide]",44%,100%,80%,100%,2,89%,,100%,0.54 nM,57%^5,800 nM,4.3 h,2 h,3 nM
"COc1nc(NCCCN2CCOCC2)nc(OC)c1NC(=O)c1ccc(Cc2cc3c(cc2Cl)C(C)(C)CCC3(C)C)o1 [Example G1, 5-(3-Chloro-5,5,8,8-tetramethyl-5,6,7,8-tetrahydro-naphthalen-2-ylmethyl)-furan-2-carboxylic acid[4,6-dimethoxy-2-(3-morpholin-4-yl-propylamino)-pyrimidin-5-yl]-amide]",0%,92%,80%,70%,>30,79%,,92%,0.9 nM,10%^5,200 nM,4.1 h,2 h,1.7 nM
